Measurements from the NIST ThermoML archive (doi:10.1021/je800463k).
Numbers after ± are expanded uncertainties.

Experiment: mn = molality of the nth substance listed, in mol/kg
Details: 101 kPa, Liquid; for electrical conductivity: Frequency=0.001 MHz, Alternating current cell with electrodes; for speed of sound: Frequency=2 MHz

## CC(=O)[O-].CC(=O)[O-].[Mg+2] [magnesium acetate] + CO
273.15 K, m1 = 0.0059
  electrical conductivity: 0.0325 ± 0.0001 S/m
  speed of sound: 1185.9 ± 6.8 m/s
273.15 K, m1 = 0.0093
  electrical conductivity: 0.055 ± 0.0001 S/m
  speed of sound: 1186.1 ± 6.8 m/s
273.15 K, m1 = 0.018
  electrical conductivity: 0.0621 ± 0.0001 S/m
  speed of sound: 1186.2 ± 6.8 m/s
  viscosity: 0.8229 ± 0.021 mPa·s
273.15 K, m1 = 0.0339
  electrical conductivity: 0.0796 ± 0.0001 S/m
  viscosity: 0.8417 ± 0.022 mPa·s
273.15 K, m1 = 0.053
  electrical conductivity: 0.0922 ± 0.0001 S/m
  speed of sound: 1190.2 ± 6.8 m/s
273.15 K, m1 = 0.0646
  electrical conductivity: 0.0965 ± 0.0001 S/m
  viscosity: 0.8642 ± 0.022 mPa·s
273.15 K, m1 = 0.0855
  electrical conductivity: 0.106 ± 0.0001 S/m
  speed of sound: 1190.1 ± 6.8 m/s
273.15 K, m1 = 0.1024
  electrical conductivity: 0.1148 ± 0.0001 S/m
  speed of sound: 1194.5 ± 6.8 m/s
273.15 K, m1 = 0.1402
  electrical conductivity: 0.1289 ± 0.0001 S/m
  speed of sound: 1194.6 ± 6.8 m/s
  viscosity: 0.9493 ± 0.024 mPa·s
273.15 K, m1 = 0.1455
  electrical conductivity: 0.1307 ± 0.0001 S/m
  speed of sound: 1192.6 ± 6.8 m/s
273.15 K, m1 = 0.1837
  electrical conductivity: 0.1414 ± 0.0001 S/m
  speed of sound: 1195.3 ± 6.8 m/s
273.15 K, m1 = 0.2422
  electrical conductivity: 0.1507 ± 0.0001 S/m
  speed of sound: 1196.9 ± 6.8 m/s
  viscosity: 1.042 ± 0.026 mPa·s
273.15 K, m1 = 0.2889
  electrical conductivity: 0.1565 ± 0.0001 S/m
  speed of sound: 1197.1 ± 6.8 m/s
  viscosity: 1.091 ± 0.027 mPa·s
273.15 K, m1 = 0.2192
  speed of sound: 1196.7 ± 6.8 m/s
273.15 K, m1 = 0.3042
  speed of sound: 1199.6 ± 6.8 m/s
273.15 K, m1 = 0.014
  viscosity: 0.821 ± 0.021 mPa·s
273.15 K, m1 = 0.1012
  viscosity: 0.9108 ± 0.023 mPa·s
273.15 K, m1 = 0.13
  viscosity: 0.9308 ± 0.024 mPa·s
273.15 K, m1 = 0.17
  viscosity: 0.9637 ± 0.024 mPa·s
273.15 K, m1 = 0.2003
  viscosity: 0.9889 ± 0.025 mPa·s
273.15 K, m1 = 0.2453
  viscosity: 1.036 ± 0.026 mPa·s
278.15 K, m1 = 0.0059
  electrical conductivity: 0.0329 ± 0.0001 S/m
  speed of sound: 1169.1 ± 6.7 m/s
278.15 K, m1 = 0.0093
  electrical conductivity: 0.0556 ± 0.0001 S/m
  speed of sound: 1169.4 ± 6.7 m/s
278.15 K, m1 = 0.018
  electrical conductivity: 0.0627 ± 0.0001 S/m
  speed of sound: 1170 ± 6.7 m/s
  viscosity: 0.7565 ± 0.02 mPa·s
278.15 K, m1 = 0.0339
  electrical conductivity: 0.0807 ± 0.0001 S/m
  viscosity: 0.7732 ± 0.02 mPa·s
278.15 K, m1 = 0.053
  electrical conductivity: 0.0937 ± 0.0001 S/m
  speed of sound: 1172.6 ± 6.7 m/s
278.15 K, m1 = 0.0646
  electrical conductivity: 0.0989 ± 0.0001 S/m
  viscosity: 0.7927 ± 0.021 mPa·s
278.15 K, m1 = 0.0855
  electrical conductivity: 0.1084 ± 0.0001 S/m
  speed of sound: 1176.6 ± 6.7 m/s
278.15 K, m1 = 0.1024
  electrical conductivity: 0.1174 ± 0.0001 S/m
  speed of sound: 1176.8 ± 6.7 m/s
278.15 K, m1 = 0.1402
  electrical conductivity: 0.1326 ± 0.0001 S/m
  speed of sound: 1177.7 ± 6.7 m/s
  viscosity: 0.867 ± 0.022 mPa·s
278.15 K, m1 = 0.1455
  electrical conductivity: 0.135 ± 0.0001 S/m
  speed of sound: 1175 ± 6.7 m/s
278.15 K, m1 = 0.1837
  electrical conductivity: 0.1448 ± 0.0001 S/m
  speed of sound: 1179.3 ± 6.7 m/s
278.15 K, m1 = 0.2422
  electrical conductivity: 0.153 ± 0.0001 S/m
  speed of sound: 1179.9 ± 6.7 m/s
  viscosity: 0.9469 ± 0.024 mPa·s
278.15 K, m1 = 0.2889
  electrical conductivity: 0.1605 ± 0.0001 S/m
  speed of sound: 1180.9 ± 6.8 m/s
  viscosity: 0.9892 ± 0.025 mPa·s
278.15 K, m1 = 0.2192
  speed of sound: 1181 ± 6.8 m/s
278.15 K, m1 = 0.3042
  speed of sound: 1181.7 ± 6.8 m/s
278.15 K, m1 = 0.014
  viscosity: 0.7547 ± 0.02 mPa·s
278.15 K, m1 = 0.1012
  viscosity: 0.8332 ± 0.021 mPa·s
278.15 K, m1 = 0.13
  viscosity: 0.8509 ± 0.022 mPa·s
278.15 K, m1 = 0.17
  viscosity: 0.8812 ± 0.022 mPa·s
278.15 K, m1 = 0.2003
  viscosity: 0.9025 ± 0.023 mPa·s
278.15 K, m1 = 0.2453
  viscosity: 0.9437 ± 0.024 mPa·s
283.15 K, m1 = 0.0059
  electrical conductivity: 0.0334 ± 0.0001 S/m
  speed of sound: 1152.8 ± 6.6 m/s
283.15 K, m1 = 0.0093
  electrical conductivity: 0.0562 ± 0.0001 S/m
  speed of sound: 1153.2 ± 6.6 m/s
283.15 K, m1 = 0.018
  electrical conductivity: 0.0634 ± 0.0001 S/m
  speed of sound: 1154.7 ± 6.6 m/s
  viscosity: 0.6998 ± 0.018 mPa·s
283.15 K, m1 = 0.0339
  electrical conductivity: 0.0818 ± 0.0001 S/m
  viscosity: 0.7143 ± 0.019 mPa·s
283.15 K, m1 = 0.053
  electrical conductivity: 0.0954 ± 0.0001 S/m
  speed of sound: 1156.3 ± 6.7 m/s
283.15 K, m1 = 0.0646
  electrical conductivity: 0.1008 ± 0.0001 S/m
  viscosity: 0.7304 ± 0.019 mPa·s
283.15 K, m1 = 0.0855
  electrical conductivity: 0.1089 ± 0.0001 S/m
  speed of sound: 1156.5 ± 6.7 m/s
283.15 K, m1 = 0.1024
  electrical conductivity: 0.1198 ± 0.0001 S/m
  speed of sound: 1160.3 ± 6.7 m/s
283.15 K, m1 = 0.1402
  electrical conductivity: 0.1355 ± 0.0001 S/m
  speed of sound: 1160.4 ± 6.7 m/s
  viscosity: 0.7965 ± 0.021 mPa·s
283.15 K, m1 = 0.1455
  electrical conductivity: 0.1388 ± 0.0001 S/m
  speed of sound: 1158.5 ± 6.7 m/s
283.15 K, m1 = 0.1837
  electrical conductivity: 0.1465 ± 0.0001 S/m
  speed of sound: 1161.7 ± 6.7 m/s
283.15 K, m1 = 0.2422
  electrical conductivity: 0.1656 ± 0.0001 S/m
  speed of sound: 1163.1 ± 6.7 m/s
  viscosity: 0.8664 ± 0.022 mPa·s
283.15 K, m1 = 0.2889
  electrical conductivity: 0.1642 ± 0.0001 S/m
  speed of sound: 1163.5 ± 6.7 m/s
  viscosity: 0.8961 ± 0.023 mPa·s
283.15 K, m1 = 0.2192
  speed of sound: 1162.8 ± 6.7 m/s
283.15 K, m1 = 0.3042
  speed of sound: 1165.8 ± 6.7 m/s
283.15 K, m1 = 0.014
  viscosity: 0.6979 ± 0.018 mPa·s
283.15 K, m1 = 0.1012
  viscosity: 0.7669 ± 0.02 mPa·s
283.15 K, m1 = 0.13
  viscosity: 0.7824 ± 0.02 mPa·s
283.15 K, m1 = 0.17
  viscosity: 0.8105 ± 0.021 mPa·s
283.15 K, m1 = 0.2003
  viscosity: 0.8289 ± 0.021 mPa·s
283.15 K, m1 = 0.2453
  viscosity: 0.8643 ± 0.022 mPa·s
288.15 K, m1 = 0.0059
  electrical conductivity: 0.0341 ± 0.0001 S/m
288.15 K, m1 = 0.0093
  electrical conductivity: 0.0566 ± 0.0001 S/m
288.15 K, m1 = 0.018
  electrical conductivity: 0.0642 ± 0.0001 S/m
288.15 K, m1 = 0.0339
  electrical conductivity: 0.0831 ± 0.0001 S/m
